From BigSolDB 2.1

CCc1cccc(CC)c1/N=C(C)/C=C(/C)Nc1c(CC)cccc1CC
solubility (mole fraction)
Conditions | 268.15 K | 273.15 K | 278.15 K | 283.15 K | 288.15 K | 293.15 K | 298.15 K | 303.15 K | 308.15 K | 313.15 K
in THF | 0.134 | 0.147 | 0.164 | 0.186 | 0.213 | 0.246 | 0.282 | 0.319 | – | –
in diethyl ether | 0.0732 | 0.0961 | 0.123 | 0.152 | 0.184 | 0.215 | 0.248 | 0.283 | – | –
in ethanol | 0.00158 | 0.00186 | 0.0022 | 0.00258 | 0.00315 | 0.00369 | 0.00476 | 0.00595 | 0.00738 | 0.00964
in methanol | 0.0003 | 0.00037 | 0.00047 | 0.00058 | 0.00072 | 0.00089 | 0.0011 | 0.00138 | 0.00173 | 0.0022
in n-hexane | 0.0373 | 0.0478 | 0.0609 | 0.0769 | 0.0964 | 0.12 | 0.148 | 0.182 | 0.223 | 0.271
in toluene | 0.147 | 0.162 | 0.178 | 0.196 | 0.216 | 0.236 | 0.259 | 0.284 | 0.312 | 0.342
